Reference: PMC11274715 (2024)

How the values were obtained:
Assay in all cases: ITC
Details in all cases: 40 mM NaCl, 5 mM MgCl2; 25 mM Tris-HCl pH 7.5, 25 °C; single-site model
[1] = test system: SAM-VI M2 RNA (RNA, riboswitch) ACAACAGAAUGAACCAACGUAUCAUUGUGCCUUAUCCGCAAAAGGCGGGUAGGGCGAUAAGUCCGAAAGAGGGAUGAU
[2] = test system: SAM-VI WT RNA (RNA, riboswitch) ACAACAGAAUGAACCAACGUAUCAUUGUGCCUUAUCCGCAAAAGGCGGGUAGGGCGAUAAGUCCGAAAGAGGGAUGAUAUG
[3] = test system: SAM-VI AP RNA (RNA, riboswitch) CGUAUCAUUGUGCCUUAUCCGCAAAAGGCGGGUAGGGCGAUAAGUCCGAAAGAGGGAUGAUAUG

Kd [1]: 419.95 µM | affinity [2]: 8.95 µM | affinity [3]: 5.33 µM
SMILES: C[S+](CC[C@H](N)C(=O)O)C[C@H]1O[C@@H](n2cnc3c(N)ncnc32)[C@H](O)[C@@H]1O (stereo partly drawn)
